Results: paper PMC6010129, “Evaluation of sulphonamide derivatives acting as inhibitors of human carbonic anhydrase isoforms I, II and Mycobacterium tuberculosisβ-class enzyme Rv3273” (Journal of Enzyme Inhibition and Medicinal Chemistry, 2018)

Tests used:
[1] = molecular target: T1, hCA I (Homo sapiens, UniProt P00915); test: stopped-flow CO2 hydrase assay; type: biochemical
T1 construct: gene CA1; cytosolic isoform
Description: stopped-flow CO2 hydrase assay on hCA I

[2] = molecular target: T2, mtCA 3 (Mycobacterium tuberculosis, UniProt P96878); test: biochemical; design: stopped-flow CO2 hydration assay, phenol red absorbance at 557 nm, 15 min pre-incubation, Ki by Cheng-Prusoff
T2 construct: beta-class carbonic anhydrase
Procedure: An Sx.18Mv-R Applied Photophysics (Oxford, UK) stopped-flow instrument has been used to assay the catalytic activity of various CA isozymes for CO2 hydration reaction. Phenol red (at a concentration of 0.2 mM) was used as indicator, working at the absorbance maximum of 557 nm, with 10 mM Hepes (pH 7.5) or 10 mM Tris (pH 8.5) as buffers, and 0.1 M Na2SO4 (for maintaining constant ionic strength, which is not inhibitory against these enzymes), following the CA-catalysed CO2 hydration reaction for a period of 10 s at 25 °C. The CO2 concentrations ranged from 1.7 to 17 mM for the determination of the kinetic parameters and […]. For each inhibitor at least six traces of the initial 5–10% of the reaction have been used for determining the initial rate. The uncatalysed rates were determined in the same manner and subtracted from the total observed rates. Stock solutions of inhibitors (10 mM) were prepared in distilled-deionised […] to 1 nM using the assay buffer. Inhibitor and enzyme solutions were pre-incubated together for 15 min (standard assay at room temperature) prior to assay, in order to allow for the formation of the enzyme–inhibitor complex. The inhibition constant (KI), was obtained by considering the classical Michaelis–Menten equation and the Cheng-Prusoff algorithm by using non-linear least squares fitting as reported earlier. The compounds 5 and 6 reported here were investigated as inhibitors of three CAs involved in crucial physiologic processes and known to act as drug targets, i.e. the human (h) isoforms hCA I and II (belonging to the α-CA class) and the bacterial enzyme mtCA3 from Mycobacterium tuberculosis (a β-class CA) (Table 3). Acetazolamide (AAZ), a clinically used sulphonamide has been employed as standard inhibitor in the assay.

[3] = molecular target: T3, hCA II (Homo sapiens, UniProt P00918); test: stopped-flow CO2 hydrase assay; type: biochemical
T3 construct: gene CA2; cytosolic isoform
Description: stopped-flow CO2 hydrase assay on hCA II

T2 sequence (P96878 entry or part of it): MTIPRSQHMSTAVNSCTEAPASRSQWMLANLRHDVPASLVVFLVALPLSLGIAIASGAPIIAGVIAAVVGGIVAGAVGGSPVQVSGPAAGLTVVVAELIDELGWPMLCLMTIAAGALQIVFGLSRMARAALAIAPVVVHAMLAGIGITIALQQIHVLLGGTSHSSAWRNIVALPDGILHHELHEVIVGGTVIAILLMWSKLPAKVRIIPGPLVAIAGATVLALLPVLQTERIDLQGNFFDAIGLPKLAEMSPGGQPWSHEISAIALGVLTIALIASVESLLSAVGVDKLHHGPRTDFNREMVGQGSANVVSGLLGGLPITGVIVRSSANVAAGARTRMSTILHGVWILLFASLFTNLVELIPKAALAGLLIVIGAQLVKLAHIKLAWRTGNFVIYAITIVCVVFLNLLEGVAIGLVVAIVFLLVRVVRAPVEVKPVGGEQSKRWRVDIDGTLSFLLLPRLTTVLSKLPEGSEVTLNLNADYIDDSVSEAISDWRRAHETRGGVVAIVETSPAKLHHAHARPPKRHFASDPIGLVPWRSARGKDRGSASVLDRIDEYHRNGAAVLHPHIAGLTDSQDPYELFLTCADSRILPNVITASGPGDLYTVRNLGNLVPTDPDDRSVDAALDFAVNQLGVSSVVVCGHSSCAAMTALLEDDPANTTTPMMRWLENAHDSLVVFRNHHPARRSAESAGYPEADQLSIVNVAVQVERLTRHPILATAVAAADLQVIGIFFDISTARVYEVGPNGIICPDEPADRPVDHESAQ
T1 sequence (P00915 2-261): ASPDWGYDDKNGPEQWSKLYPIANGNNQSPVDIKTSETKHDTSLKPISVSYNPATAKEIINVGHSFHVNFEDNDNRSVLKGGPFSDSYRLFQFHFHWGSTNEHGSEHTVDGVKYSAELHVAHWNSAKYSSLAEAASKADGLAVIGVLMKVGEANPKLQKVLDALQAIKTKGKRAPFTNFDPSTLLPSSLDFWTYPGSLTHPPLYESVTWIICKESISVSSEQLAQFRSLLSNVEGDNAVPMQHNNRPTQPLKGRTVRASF

| Structure (SMILES) | Ki [1] [nM] | Ki [2] [nM] | Ki [3] [nM] |
| --- | --- | --- | --- |
| NS(=O)(=O)c1ccc(NCC(=O)N2N=C(c3ccc(Cl)cc3)CC2c2ccccc2)cc1 (stereo not drawn) [5a, 4-((2-(3-(4-Chlorophenyl)-5-phenyl-4,5-dihydro-1H-pyrazol-1-yl)-2-oxoethyl)amino) benzenesulphonamide] | 306 | 1800 | 282 |
| NS(=O)(=O)c1ccc(NCC(=O)N2N=C(c3ccc(Cl)cc3)CC2c2ccc(F)cc2)cc1 (stereo not drawn) [5b, 4-((2-(3-(4-Chlorophenyl)-5-(4-fluorophenyl)-4,5-dihydro-1H-pyrazol-1-yl)-2-oxoethyl)amino) benzenesulphonamide] | 441 |  | 500 |
| NS(=O)(=O)c1ccc(NCC(=O)N2N=C(c3ccc(Cl)cc3)CC2c2ccc(Br)cc2)cc1 (stereo not drawn) [5c, 4-((2-(3-(4-Chlorophenyl)-5-(4-bromophenyl)-4,5-dihydro-1H-pyrazol-1-yl)-2-oxoethyl)amino) benzenesulphonamide] | 634 | 732 | 2850 |
| Cc1ccc(C2CC(c3ccc(Cl)cc3)=NN2C(=O)CNc2ccc(S(N)(=O)=O)cc2)cc1 (stereo not drawn) [5d, 4-((2-(3-(4-Chlorophenyl)-5-(4-methylphenyl)-4,5-dihydro-1H-pyrazol-1-yl)-2-oxoethyl)amino)benzenesulphonamide] | 93.4 | 175 | 426 |
| NS(=O)(=O)c1ccc(NCC(=O)N2N=C(c3ccc(Cl)cc3)CC2c2ccncc2)cc1 (stereo not drawn) [5e, 4-((2-(3-(4-Chlorophenyl)-5-(pyridin-4-yl)-4,5-dihydro-1H-pyrazol-1-yl)-2-oxoethyl)amino) benzenesulphonamide] | 175 | 138 | 42.3 |
| NS(=O)(=O)c1ccc(NCC(=O)N2N=C(c3ccc(Cl)cc3)CC2c2ccccc2Cl)cc1 (stereo not drawn) [5f, 4-((2-(3-(4-Chlorophenyl)-5-(2-chlorophenyl)-4,5-dihydro-1H-pyrazol-1-yl)-2-oxoethyl)amino)benzenesulphonamide] | 445 | 215 | 433 |
| NS(=O)(=O)c1ccc(NCC(=O)N2N=C(c3ccc(Cl)cc3)CC2c2ccccc2O)cc1 (stereo not drawn) [5g, 4-((2-(3-(4-Chlorophenyl)-5-(2-hydroxyphenyl)-4,5-dihydro-1H-pyrazol-1-yl)-2-oxoethyl)amino)benzenesulphonamide] | 174 | 147 | 578 |
| COc1ccc(C2CC(c3ccc(Cl)cc3)=NN2C(=O)CNc2ccc(S(N)(=O)=O)cc2)cc1OC (stereo not drawn) [5h, 4-((2-(3-(4-Chlorophenyl)-5-(3,4-dimethoxyphenyl)-4,5-dihydro-1H-pyrazol-1-yl)-2-oxoethyl)amino)benzenesulphonamide] | 280 | 186 | 424 |
| NS(=O)(=O)c1ccc(NCC(=O)N2N=C(c3ccc(Cl)cc3)CC2c2cccs2)cc1 (stereo not drawn) [5i, 4-((2-(3-(4-Chlorophenyl)-5-(thiophen-2-yl)-4,5-dihydro-1H-pyrazol-1-yl)-2-oxoethyl)amino)benzenesulphonamide] | 276 | 233 | 373 |
| NS(=O)(=O)c1ccc(NCC(=O)N2N=C(c3ccc(Cl)cc3)CC2c2c3ccccc3cc3ccccc23)cc1 (stereo not drawn) [5j, 4-((2-(5-(Anthracen-9-yl)-3-(4-chlorophenyl)-4,5-dihydro-1H-pyrazol-1-yl)-2-oxoethyl)amino)benzenesulphonamide] | 91.8 | 157 | 2020 |
| NS(=O)(=O)c1ccc(NCC(=O)N2N=C(c3ccc(Cl)cc3)CC2c2c[nH]c3ccccc23)cc1 (stereo not drawn) [5k, 4-((2-(3-(4-Chlorophenyl)-5-(1H-indol-3-yl)-4,5-dihydro-1H-pyrazol-1-yl)-2-oxoethyl)amino)benzenesulphonamide] | 440 | 127 | 392 |
| CC1=NN(C(=O)CNc2ccc(S(N)(=O)=O)cc2)C(c2ccccc2)C1 (stereo not drawn) [5l, 4-((2-(3-Methyl-5-phenyl-4,5-dihydro-1H-pyrazol-1-yl)-2-oxoethyl)amino) benzene sulphonamide] | 760 | 1580 | 810 |
| COc1ccc(C2CC(C)=NN2C(=O)CNc2ccc(S(N)(=O)=O)cc2)cc1 (stereo not drawn) [5m, 4-((2-(5-(4-Methoxyphenyl)-3-methyl-4,5-dihydro-1H-pyrazol-1-yl)-2-oxoethyl)amino)benzenesulphonamide] | 2370 | > 10000 | 5550 |
| CC1=NN(C(=O)CNc2ccc(S(N)(=O)=O)cc2)C(c2ccc(Cl)cc2)C1 (stereo not drawn) [5n, 4-((2-(5-(4-Chlorophenyl)-3-methyl-4,5-dihydro-1H-pyrazol-1-yl)-2-oxoethyl)amino)benzenesulphonamide] | 835 | 1290 | 944 |
| CC1=NN(C(=O)CNc2ccc(S(N)(=O)=O)cc2)C(c2ccc(C)cc2)C1 (stereo not drawn) [5o, 4-((2-(3-Methyl-5-(p-tolyl)-4,5-dihydro-1H-pyrazol-1-yl)-2-oxoethyl)amino)benzene sulphonamide] | 898 | 275 | 3460 |
| CC1=NN(C(=O)CNc2ccc(S(N)(=O)=O)cc2)C(c2ccc(F)cc2)C1 (stereo not drawn) [5p, 4-((2-(5-(4-Fluorophenyl)-3-methyl-4,5-dihydro-1H-pyrazol-1-yl)-2-oxoethyl)amino)benzenesulphonamide] | 665 | 250 | 903 |
| CC1=NN(C(=O)CNc2ccc(S(N)(=O)=O)cc2)C(c2ccccc2Cl)C1 (stereo not drawn) [5q, 4-((2-(5-(2-Chlorophenyl)-3-methyl-4,5-dihydro-1H-pyrazol-1-yl)-2-oxoethyl)amino)benzenesulphonamide] | 742 | 623 | 648 |
| CC1=NN(C(=O)CNc2ccc(S(N)(=O)=O)cc2)C(c2ccccc2O)C1 (stereo not drawn) [5r, 4-((2-(5-(2-Hydroxyphenyl)-3-methyl-4,5-dihydro-1H-pyrazol-1-yl)-2-oxoethyl)amino)benzenesulphonamide] | 721 | 1590 | 83.1 |
| CC1=NN(C(=O)CNc2ccc(S(N)(=O)=O)cc2)C(c2ccc(O)cc2)C1 (stereo not drawn) [5s, 4-((2(5-(4-Hydroxyphenyl)-3-methyl-4,5-dihydro-1H-pyrazol-1-yl)-2-oxoethyl)amino)benzenesulphonamide] | 738 | 265 | 73.6 |
| CC1=NN(C(=O)CNc2ccc(S(N)(=O)=O)cc2)C(c2ccc(N(C)C)cc2)C1 (stereo not drawn) [5t] | 842 | 1740 | 5150 |
| CC1=NN(C(=O)CNc2ccc(S(N)(=O)=O)cc2)C(c2cccs2)C1 (stereo not drawn) [5u, 4-((2-(3-Methyl-5-(thiophen-2-yl)-4,5-dihydro-1H-pyrazol-1-yl)-2-oxoethyl)amino)benzenesulphonamide] | 798 | 1450 | 126 |
| NS(=O)(=O)c1ccc(NCC(=O)N/N=C/c2ccccc2)cc1 [6a, 4-((2-(2-Benzylidenehydrazinyl)-2-oxoetehyl)amino) benzenesulphonamide] | 220 | > 10000 | 549 |
| Cc1ccc(C=NNC(=O)CNc2ccc(S(N)(=O)=O)cc2)cc1 [6b, 4-((2-(2-(4-Methylbenzylidene) hydrazinyl)-2-oxoethyl)amino)benzene sulphonamide] | 266 | > 10000 | 914 |
| NS(=O)(=O)c1ccc(NCC(=O)N/N=C/c2ccccc2O)cc1 [6c, 4-((2-(2-(2-Hydroxybenzylidene)hydrazinyl)-2-oxoethyl)amino) benzenesulphonamide] | 54.6 | 2150 | 32.1 |
| NS(=O)(=O)c1ccc(NCC(=O)N/N=C/c2ccccn2)cc1 [6d, 4-((2-Oxo-2-(2-(pyridin-2-ylmethylene) hydrazinyl)ethyl)amino) benzenesulphonamide] | 316 | > 10000 | 418 |
| COc1ccc(/C=N/NC(=O)CNc2ccc(S(N)(=O)=O)cc2)cc1OC [6e, 4-((2-(2-(3,4-Dimethoxybenzylidene)hydrazinyl)-2-oxoethyl)amino) benzenesulphonamide] | 1800 |  | 758 |
| COc1ccc(/C=N/NC(=O)CNc2ccc(S(N)(=O)=O)cc2)cc1 [6f, 4-((2-(2-(4-Methoxybenzylidene) hydrazinyl)-2-oxoethyl)amino) benzenesulphonamide] | 648 | 2130 | 703 |
| NS(=O)(=O)c1ccc(NCC(=O)N/N=C/c2ccc(O)cc2)cc1 [6g, 4-((2-(2-(4-Hydroxybenzylidene)hydrazinyl)-2-oxoethyl)amino) benzenesulphonamide] | 327 |  | 255 |
| COc1cc(/C=N/NC(=O)CNc2ccc(S(N)(=O)=O)cc2)cc(OC)c1O [6h, 4-((2-(2-(4-Hydroxy-3,5-dimethoxybenzylidene)hydrazinyl)-2-oxoethyl)amino) benzenesulphonamide] | 292 | 2000 | 483 |
